Results as given in PubChem BioAssay AID330 (DTP/NCI, 2004).
Values joined by “and” are separate entries in the source; they are usually repeats but may differ in a detail not shown here. Identical values can stand only once. Inconclusive results and toxic doses are left out.

Test system: P388 leukemia ip, CD2F1 mice, survival T/C
Assay: NCI In Vivo Anticancer Drug Screen. Data for tumor model P388 Leukemia (intraperitoneal) in CD2F1 (CDF1) mice
Details: endpoint: median survival time, higher = longer survival
Method in brief: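 Mice carrying the transplanted tumor received test compound or vehicle. Survival was recorded in each group, and the value is the treated-group measurement divided by that of the vehicle-treated control group.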

[1] = dose: 60.0 mg/kg/injection, schedule: Q01DX005 (ip), vehicle: saline with Tween-80
[2] = dose: 60.0 mg/kg/injection, schedule: Q01DX005 (ip), vehicle: saline
[3] = dose: 120.0 mg/kg/injection, schedule: Q01DX005 (ip), vehicle: saline with Tween-80
[4] = dose: 120.0 mg/kg/injection, schedule: Q01DX005 (ip), vehicle: saline
[5] = dose: 240.0 mg/kg/injection, schedule: Q01DX005 (ip), vehicle: saline with Tween-80
[6] = dose: 12.5 mg/kg/injection, schedule: Q01DX009 (ip), vehicle: Klucel (hydroxypropylcellulose) (HPC)

O=S(=O)(OC(F)(F)F)C(F)(F)F
T/C (dose: 24.5 mg/kg/injection, schedule: Q01DX001 (ip), vehicle: Klucel (hydroxypropylcellulose) (HPC)): 97 % of control | T/C (dose: 49.0 mg/kg/injection, schedule: Q01DX001 (ip), vehicle: Klucel (hydroxypropylcellulose) (HPC)): 94 % of control | T/C (dose: 98.0 mg/kg/injection, schedule: Q01DX001 (ip), vehicle: Klucel (hydroxypropylcellulose) (HPC)): 94 % of control

C(#Cc1c2ccccc2c(C#Cc2ccccc2)c2c1oc1c3ccccc3ccc12)c1ccccc1
T/C (dose: 100.0 mg/kg/injection, schedule: Q04DX003 (ip), vehicle: saline with Tween-80): 97 % of control | T/C (dose: 200.0 mg/kg/injection, schedule: Q04DX003 (ip), vehicle: saline with Tween-80): 97 % of control | T/C (dose: 400.0 mg/kg/injection, schedule: Q04DX003 (ip), vehicle: saline with Tween-80): 92 % of control

CN(C)Cc1cc(O)c(CN(C)C)cc1O
T/C (dose: 3.13 mg/kg/injection, schedule: Q01DX009 (ip), vehicle: saline + Tween-80 + alcohol): 100 % of control | T/C (dose: 6.25 mg/kg/injection, schedule: Q01DX009 (ip), vehicle: saline + Tween-80 + alcohol): 101 % of control and 111 % of control | T/C (dose: 12.5 mg/kg/injection, schedule: Q01DX009 (ip), vehicle: other): 123 % of control | T/C (dose: 12.5 mg/kg/injection, schedule: Q01DX009 (ip), vehicle: saline + Tween-80 + alcohol): 102 % of control and 112 % of control | T/C (dose: 25.0 mg/kg/injection, schedule: Q01DX009 (ip), vehicle: other): 105 % of control | T/C (dose: 25.0 mg/kg/injection, schedule: Q01DX009 (ip), vehicle: saline + Tween-80 + alcohol): 107 % of control and 109 % of control | T/C (dose: 50.0 mg/kg/injection, schedule: Q01DX009 (ip), vehicle: other): 105 % of control | T/C (dose: 100.0 mg/kg/injection, schedule: Q01DX009 (ip), vehicle: other): 119 % of control

N#CC1(c2ccccc2)CCN(c2c3ccccc3nc3ccccc23)CC1
T/C (dose: 100.0 mg/kg/injection, schedule: Q04DX003 (ip), vehicle: Klucel (hydroxypropylcellulose) (HPC)): 103 % of control and 110 % of control | T/C (dose: 200.0 mg/kg/injection, schedule: Q04DX003 (ip), vehicle: Klucel (hydroxypropylcellulose) (HPC)): 109 % of control and 112 % of control | T/C (dose: 400.0 mg/kg/injection, schedule: Q04DX003 (ip), vehicle: Klucel (hydroxypropylcellulose) (HPC)): 117 % of control and 123 % of control

Cn1nc(C(N)=O)c2c(N)ncnc21
T/C (dose: 0.94 mg/kg/injection, schedule: Q01DX005 (ip), vehicle: saline with Tween-80): 105 % of control | T/C (dose: 1.88 mg/kg/injection, schedule: Q01DX005 (ip), vehicle: saline with Tween-80): 92 % of control | T/C (dose: 3.75 mg/kg/injection, schedule: Q01DX005 (ip), vehicle: saline with Tween-80): 104 % of control | T/C (dose: 7.5 mg/kg/injection, schedule: Q01DX005 (ip), vehicle: saline with Tween-80): 91 % of control

N#CCN=NNc1ccc([N+](=O)[O-])cc1
T/C (dose: 100.0 mg/kg/injection, schedule: Q01DX001 (ip), vehicle: Klucel (hydroxypropylcellulose) (HPC)): 115 % of control | T/C (dose: 200.0 mg/kg/injection, schedule: Q01DX001 (ip), vehicle: Klucel (hydroxypropylcellulose) (HPC)): 107 % of control | T/C (dose: 400.0 mg/kg/injection, schedule: Q01DX001 (ip), vehicle: Klucel (hydroxypropylcellulose) (HPC)): 116 % of control

C[Si](C)(CNCCN)c1ccccc1
T/C [1]: 101 % of control | T/C [2]: 91 % of control | T/C [3]: 105 % of control | T/C [4]: 93 % of control | T/C [5]: 101 % of control

COc1cc2c(cc1OC)[C@H]1C(=O)c3cc4c(cc3[C@H]1N(C)C2=O)OCO4
T/C (dose: 12.5 mg/kg/injection, schedule: Q01DX005 (ip), vehicle: distilled water + Tween-80): 94 % of control | T/C (dose: 25.0 mg/kg/injection, schedule: Q01DX005 (ip), vehicle: distilled water + Tween-80): 96 % of control | T/C (dose: 50.0 mg/kg/injection, schedule: Q01DX005 (ip), vehicle: distilled water + Tween-80): 91 % of control

C/C(=N\N=C(/[Se])N1CC2CCC(CC2)C1)c1ccccn1
T/C (dose: 1.56 mg/kg/injection, schedule: Q01DX009 (ip), vehicle: Klucel (hydroxypropylcellulose) (HPC)): 100 % of control | T/C (dose: 3.12 mg/kg/injection, schedule: Q01DX009 (ip), vehicle: Klucel (hydroxypropylcellulose) (HPC)): 124 % of control | T/C [6]: 98 % of control and 97 % of control

CC(C)CC(C(=O)O)N1C(=O)C=CC1=O (configuration not stated)
T/C [6]: 93 % of control | T/C (dose: 25.0 mg/kg/injection, schedule: Q01DX009 (ip), vehicle: Klucel (hydroxypropylcellulose) (HPC)): 107 % of control

CCCN=C1NS(=O)(=O)c2ccccc21
T/C (dose: 50.0 mg/kg/injection, schedule: Q01DX005 (ip), vehicle: saline with Tween-80): 110 % of control | T/C (dose: 100.0 mg/kg/injection, schedule: Q01DX005 (ip), vehicle: saline with Tween-80): 98 % of control | T/C (dose: 200.0 mg/kg/injection, schedule: Q01DX005 (ip), vehicle: saline with Tween-80): 93 % of control

O=C1c2ccncc2C(=O)c2c1[nH]c1ccccc21
T/C (dose: 7.5 mg/kg/injection, schedule: Q04DX002 (ip), vehicle: Klucel (hydroxypropylcellulose) (HPC)): 97 % of control | T/C (dose: 15.0 mg/kg/injection, schedule: Q04DX002 (ip), vehicle: Klucel (hydroxypropylcellulose) (HPC)): 95 % of control | T/C (dose: 30.0 mg/kg/injection, schedule: Q04DX002 (ip), vehicle: Klucel (hydroxypropylcellulose) (HPC)): 90 % of control and 97 % of control | T/C (dose: 60.0 mg/kg/injection, schedule: Q04DX002 (ip), vehicle: Klucel (hydroxypropylcellulose) (HPC)): 95 % of control

Clc1ccc2ccc3cccnc3c2n1
T/C (dose: 7.5 mg/kg/injection, schedule: Q01DX005 (ip), vehicle: saline): 102 % of control | T/C (dose: 15.0 mg/kg/injection, schedule: Q01DX005 (ip), vehicle: saline): 97 % of control | T/C (dose: 30.0 mg/kg/injection, schedule: Q01DX005 (ip), vehicle: saline): 93 % of control | T/C [2]: 102 % of control | T/C [4]: 105 % of control

CN1CCN(C(=O)Nc2ccc(N=Nc3ccccc3)cc2)CC1
T/C (dose: 12.5 mg/kg/injection, schedule: Q01DX009 (ip), vehicle: saline sonified): 105 % of control | T/C (dose: 25.0 mg/kg/injection, schedule: Q01DX009 (ip), vehicle: saline sonified): 100 % of control

CC(C)(C(=O)O)c1ccc(C(=O)O)c(Br)c1
T/C (dose: 50.0 mg/kg/injection, schedule: Q01DX009 (ip), vehicle: saline with Tween-80): 91 % of control | T/C (dose: 100.0 mg/kg/injection, schedule: Q01DX009 (ip), vehicle: saline with Tween-80): 93 % of control | T/C (dose: 200.0 mg/kg/injection, schedule: Q01DX009 (ip), vehicle: saline with Tween-80): 101 % of control

CCC1(O)CCC2C3CC=C4CCCCC4C3CCC21C (configuration not stated)
T/C (dose: 50.0 mg/kg/injection, schedule: Q01DX009 (ip), vehicle: saline): 107 % of control | T/C (dose: 100.0 mg/kg/injection, schedule: Q01DX009 (ip), vehicle: saline): 100 % of control | T/C (dose: 200.0 mg/kg/injection, schedule: Q01DX009 (ip), vehicle: saline): 100 % of control

O=C(O)C(=O)O.[NH-]CCC[NH-].[Pt+2]
T/C (dose: 0.63 mg/kg/injection, schedule: Q04DX003 (ip), vehicle: other): 88 % of control | T/C (dose: 2.5 mg/kg/injection, schedule: Q04DX003 (ip), vehicle: other): 153 % of control | T/C (dose: 5.0 mg/kg/injection, schedule: Q04DX003 (ip), vehicle: other): 160 % of control | T/C (dose: 6.25 mg/kg/injection, schedule: Q04DX002 (ip), vehicle: saline): 158 % of control | T/C (dose: 12.5 mg/kg/injection, schedule: Q04DX002 (ip), vehicle: saline): 203 % of control

CN(C)CC1=Nc2cccc3cccc(c23)N1
T/C [1]: 102 % of control | T/C [3]: 106 % of control

O=C(O)Cc1ccc(N2N=C(c3ccccc3)CC2=O)cc1
T/C [1]: 98 % of control | T/C [3]: 92 % of control

CC(=O)C1(O)Cc2c(O)c3c(c(O)c2C(OC2CC(N)C(O)C(C)O2)C1C)C(=O)c1ccccc1C3=O (configuration not stated)
T/C (dose: 0.6 mg/kg/injection, schedule: Q04DX003 (ip), vehicle: water): 100 % of control | T/C (dose: 1.2 mg/kg/injection, schedule: Q04DX003 (ip), vehicle: water): 108 % of control | T/C (dose: 2.4 mg/kg/injection, schedule: Q04DX003 (ip), vehicle: water): 108 % of control | T/C (dose: 4.8 mg/kg/injection, schedule: Q04DX003 (ip), vehicle: water): 106 % of control | T/C (dose: 9.6 mg/kg/injection, schedule: Q04DX003 (ip), vehicle: water): 118 % of control

CCOC(=O)c1cnc2cc(C)cc(C)c2c1Nc1ccc2c(c1)OCO2
T/C (dose: 60.0 mg/kg/injection, schedule: Q01DX005 (ip), vehicle: Klucel + Tween-80): 100 % of control | T/C (dose: 120.0 mg/kg/injection, schedule: Q01DX005 (ip), vehicle: Klucel + Tween-80): 92 % of control | T/C (dose: 240.0 mg/kg/injection, schedule: Q01DX005 (ip), vehicle: Klucel + Tween-80): 87 % of control

NNC(=O)CNc1cc(Cl)cc(Cl)c1
T/C [1]: 113 % of control | T/C [3]: 97 % of control | T/C [5]: 100 % of control
